Earlier results in patent US20060167044A1, “Piperidine derivatives and their use as anti-inflammatory agents” (priority 2004, published 2006).

System: UUO kidneys
Details: mouse, in vivo

C[C@@H]1CN(Cc2ccc(F)cc2)CCN1C(=O)COc1ccc(Cl)cc1NC(N)=O [BX 471]
CD8+/CCR5+ T cells (FACS analysis): comparable reduction
